Assay results published in patent US20240252586A1, “ENGINEERED ANTIMICROBIAL PEPTIDES AND USAGE THEREOF” (priority 2021, published 2024).
“And” between values parts separate entries of the source, which are not always exact repeats. Equal entries are not always repeated. Where two headings read alike, the source gives them in different places. One block for each compound: values may come before it.

What was measured:
P. aeruginosa CDC 0515 [1] = test system: P. aeruginosa CDC 0515
Protocol: (§1) SEQ ID NO: 1 stocks were made at 5.12 mg/mL in water adjusted to pH of 5.0 with 1% glacial acetic acid.
(§2) The test organisms (Table 7) consisted of clinical isolates from the Micromyx (MMX) repository, a reference isolate from the American Type Culture Collection (ATCC, Manassas, VA) and the Centers for Disease Control (CDC, Atlanta GA). Upon initial receipt, the isolates were streaked under suitable conditions onto agar medium appropriate to each organism. The organisms were incubated for 18-24 hr at 35° C. in ambient atmosphere. Colonies harvested from these growth plates were resuspended in the appropriate medium containing a cryoprotectant. Aliquots of each suspension were then stored frozen at −80° C. Prior to testing, all organisms were cultured onto trypticase soy agar containing 5% sheep blood. The agar plates were incubated as described above.
(§3) The Test media used for MIC and FIC were testing were cation-adjusted Mueller-Hinton broth (CAMHB) and Roswell Park Memorial Institute (RPMI-1640), buffered with 3-(N-morpholino)propanesulfonic acid (MOPS). Each test media was supplemented with 0.002% Tween-80 (P-80) prior to testing.
(§4) MIC assay plates were prepared for broth microdilution in accordance with guidelines from the Clinical and Laboratory Standards Institute (CLSI); automated liquid handlers (Biomek 3000 and Biomek FX) and multi-channel pipettes were used to conduct serial dilutions and liquid transfers. MIC assay plates were prepared using a 96-well, deep-well microdilution plate that mimicked the layout of the daughter plates.
(§5) For the mother plate, wells across the standard 96-well microdilution plate were filled with 150 μL of sterile saline 0.002% P-80 in columns 2 through 12. […] The Biomek 300 was used to make eleven 2-fold serial dilutions horizontally across each row of the plate from columns 2 through 11. The Biomek FX was then used to transfer 5 μL of the SEQ ID NO: 1 and saline 0.002% P-80 to the daughter plates.
(§6) A standardized inoculum of each organism was prepared per CLSI methods. Suspensions were prepared to equal a 0.5 McFarland standard followed by a 1:10 dilution into test medium. The inocula were dispensed into sterile reservoirs divided by length and the Biomek 3000 was used to inoculate the plates. Daughter plates were placed on the Biomek 3000 work surface in reverse orientation so that inoculation took place from low to high drug concentration. The Biomek 3000 delivered 10 μL of the diluted suspension into each well. These inoculations yielded a final cell concentration in the daughter plates of approximately 5×10^5 CFU/mL in each well. Plates were incubated at 35° C. for 16-20 hr. The microplates were viewed from the bottom using a plate viewer and the MIC was recorded as the lowest concentration of drug that inhibited visible growth of the organism.

E. Coli ATCC BAA-2469 = test system: E. Coli ATCC BAA-2469
Protocol: as §1, §2, §3, §4, §5, §6

S. aureus ATCC 29213 = test system: S. aureus ATCC 29213
Protocol: as §1, §2, §3, §4, §5, §6

P. aeruginosa CDC 0509 = test system: P. aeruginosa CDC 0509
Protocol: as §1, §2, §3, §4, §5, §6

E. Coli ATCC 25922 = test system: E. Coli ATCC 25922
Protocol: as §1, §2, §3, §4, §5, §6

S. epidermidis MMX 8655 = test system: S. epidermidis MMX 8655
Protocol: as §1, §2, §3, §4, §5, §6

S. epidermidis MMX 5129 = test system: S. epidermidis MMX 5129
Protocol: as §1, §2, §3, §4, §5, §6

E. Coli CDC 0451 = test system: E. Coli CDC 0451
Protocol: as §1, §2, §3, §4, §5, §6

S. aureus NRS 384 = test system: S. aureus NRS 384
Protocol: as §1, §2, §3, §4, §5, §6

P. aeruginosa ATCC 27853 = test system: P. aeruginosa ATCC 27853
Protocol: as §1, §2, §3, §4, §5, §6

S. epidermidis MMX 3628 = test system: S. epidermidis MMX 3628
Protocol: as §1, §2, §3, §4, §5, §6

S. aureus NRS 382 = test system: S. aureus NRS 382
Protocol: as §1, §2, §3, §4, §5, §6

P. aeruginosa CDC 0515 [2] = conditions: for FICA / MICA: RPMI; for MICA: in combination with SEQ ID NO: 1
Protocol: FIC test ranges were set based on broth microdilution MIC test data. FIC assay plates were prepared in accordance with CLSI guidelines for broth microdilution susceptibility testing; automated liquid handlers, and multi-channel pipettes were used to conduct serial dilutions and liquid transfers.
SEQ ID NO: 1 was tested at two concentration ranges depending on the test media. All organisms tested in CAMHB 0.002% P-80 were tested from 0.015-16 μg/mL; when tested in RPMI 0.002% P-80, the range tested was 0.004-4 μg/mL. For each SEQ ID NO: 1 mother, wells across the standard 96-well microdilution plate were filled with 150 μL of sterile saline 0.002% P-80 in columns 2 through 12. A 300 μL aliquot at 20× the highest final concentration of each dilution range to be tested, was added to each well in column 1 of the plate. The Biomek 3000 was used to make eleven 2-fold serial dilutions horizontally across each row of the plate columns 2 through 11.
The daughter plates were then completed using the Biomek FX to transfer 5 μL of drug solution from each well of the SEQ ID NO: 1 mother plates to the corresponding well in each daughter plate in a single step. […] The preparation of the daughter plates was performed for each media type; two times in total as all organisms were tested in both media types.
A standard inoculum for each organism was prepared per CLSI method. Colonies were picked up from the primary plate and a suspension was prepared equal to 0.5 McFarland turbidity standard. The suspensions were additionally diluted 1:10 in the appropriate broth. A 10 μL standardized inoculum was delivered into each well using the Biomek 3000 from low to high concentration. These inoculations yielded a final cell concentration in the daughter plates of approximately 5×10^5 CFU/mL in each well. […] Exemplary checkboard panels are seen in Table 5 and Table 6. Plates were incubated at 35° C. for 16-20 hr.
The MIC of the horizontal agent (row H) and the MIC of the vertical agent (column 12) were recorded and the wells of the growth-no growth interface for wells containing agents in combination at varying ratios were recorded by row. […] Pinpoint trailing was not interpreted as growth.
For each relevant row of the panel, the FICI was calculated as:
FICdrug A/MICdrug A+FICdrug B/MICdrug=FICI
Mean FICI values were determined for each combination tested by averaging the FICI values as observed on each row of the checkerboard assay (See Table 9, e.g., if there were FICI values for B-G, those FICI values were added together and divided by the number of rows the FICI values which in this case is 6 to get the mean FICI value for that combination).
Using the criteria described by: Odds FC. 2003. Synergy, antagonism, and what the chequerboard puts between them. J Antimicrob Chemother 52(1):1, the mean FICI for the combination was interpreted as follows: ≤0.5=synergy, >0.5-4=additive/indifferent, and >4=antagonism. […] An interpretation of indifference is consistent with growth inhibition at concentrations at or slightly below/above the MICs of the individual agents alone, resulting in a FICI value of >0.5 but […].

[3] = test system: Staphylococcus aureus NRS 382 (USA100 MRSA) biofilm; test: Wire biofilm time-kill assay (Study 3); format: cell-based; conditions: 150 mM sodium bicarbonate, 1 mg/mL; for CFU/mL: per replicate
Source text: Study 3. […]
These three vehicles without SEQ ID NO: 1 served as the untreated controls. Double strength Dey/Engley neutralizing broth was used as a neutralizer for dilution and plating during determination of colony-forming units (CFU)/mL at each time point.
In order to establish the biofilm on the wires, the following procedure was followed: An overnight culture of each isolate was made in Tryptic soy broth. K-wires that were cut to 6 mm and sterilized by autoclaving were placed in 24 well plates and inoculated with 1 mL of a normalized bacterial suspension containing approximately 1×10^6 CFU/mL in cation-adjusted Mueller-Hinton broth. The plates containing the wires were incubated for 24 hr at 35° C. followed by removing the planktonic cells by carefully pipetting the medium from the wells. Fresh CAMHB (1 mL) was added to the wells containing the wires and the plates were incubated for an additional 24 hr at 35° C.
After the biofilm was established, the wires were removed from the wells using sterile forceps, rinsed with 1 mL of PBS, and placed in the appropriate treatment well containing 0, 1, 5, or 10 mg/mL SEQ ID NO: […] After the designated time, each wire was removed, rinsed with 1 mL of PBS, and then placed in an Eppendorf tube with 1 mL of double strength Dey-Engley medium. The wires were then sonicated at room temperature for 10 min to dislodge bacteria using a Lab Line Instruments sonicator at a setting of 100%.
A 0.2 mL aliquot of sonicate was removed and pipetted into column 1 of a 96-well plate that contained 180 μL of double strength Dey-Engley medium in columns 2 through 5. […] The plate was then tilted at a […] to allow the diluted sample to track across the agar surface to the opposite side of the plate. The plates were laid flat, allowed to dry at room temperature, then inverted and incubated at 35° C. for approximately 24 hr. Colonies were manually counted to determine the viable count in CFU/mL.

MIC (P. aeruginosa CDC 0515 [1]; CAMHB): 200 mM | MIC (P. aeruginosa CDC 0515 [1]; RPMI): 200 mM | MIC (E. Coli ATCC BAA-2469; CAMHB): 200 mM | MIC (E. Coli ATCC BAA-2469; RPMI): 200 mM | MIC (S. aureus ATCC 29213; CAMHB): >200 mM | MIC (S. aureus ATCC 29213; RPMI): 200 mM | MIC (P. aeruginosa CDC 0509; CAMHB): 200 mM | MIC (P. aeruginosa CDC 0509; RPMI): 200 mM | MIC (E. Coli ATCC 25922; CAMHB): 200 mM | MIC (E. Coli ATCC 25922; RPMI): 200 mM | MIC (S. epidermidis MMX 8655; CAMHB): 200 mM | MIC (S. epidermidis MMX 8655; RPMI): 200 mM | MIC (S. epidermidis MMX 5129; CAMHB): 200 mM | MIC (S. epidermidis MMX 5129; RPMI): 200 mM | MIC (E. Coli CDC 0451; CAMHB): 100 mM | MIC (E. Coli CDC 0451; RPMI): 200 mM | MIC (S. aureus NRS 384; CAMHB): 200 mM | MIC (S. aureus NRS 384; RPMI): 200 mM | MIC (P. aeruginosa ATCC 27853; CAMHB): 200 mM | MIC (P. aeruginosa ATCC 27853; RPMI): 200 mM | MIC (S. epidermidis MMX 3628; CAMHB): 100 mM | MIC (S. epidermidis MMX 3628; RPMI): 200 mM | MIC (S. aureus NRS 382; CAMHB): 200 mM | MIC (S. aureus NRS 382; RPMI): 200 mM | Drug A MIC (P. aeruginosa CDC 0515 [2]; CAMHB, alone): > 100 | MICA (P. aeruginosa CDC 0515 [2]; checkerboard row A): 100 | MICA (P. aeruginosa CDC 0515 [2]; checkerboard row B): 50 | MICA (P. aeruginosa CDC 0515 [2]; checkerboard row C): 25 | MICA (P. aeruginosa CDC 0515 [2]; checkerboard row D): 12.5 | MICA (P. aeruginosa CDC 0515 [2]; checkerboard row E): 6.25 | MICA (P. aeruginosa CDC 0515 [2]; checkerboard row F): 3.12 | MICA (P. aeruginosa CDC 0515 [2]; checkerboard row G): 1.56
Compound: O=C([O-])O.[Na+] [Sodium Bicarbonate]
FICA (P. aeruginosa CDC 0515 [2]; checkerboard row A): 0.5 | FICA (P. aeruginosa CDC 0515 [2]; checkerboard row B): 0.25 | FICA (P. aeruginosa CDC 0515 [2]; checkerboard row C): 0.125 | FICA (P. aeruginosa CDC 0515 [2]; checkerboard row D): 0.063 | FICA (P. aeruginosa CDC 0515 [2]; checkerboard row E): 0.031 | FICA (P. aeruginosa CDC 0515 [2]; checkerboard row F): 0.016 | FICA (P. aeruginosa CDC 0515 [2]; checkerboard row G): 0.008

Compound: SEQ ID: 1 (RRWVRRVRRVWRRVVRVVRRWVRR)
Mean CFU/mL ([3]; 0 min): 1.08E+5 CFU/mL | CFU/mL ([3]; 0 min): 4.80E+04 CFU/mL and 1.50E+05 CFU/mL and 1.25E+05 CFU/mL | Mean CFU/mL ([3]; 1 min): 1.68E+3 CFU/mL | CFU/mL ([3]; 1 min): 8.00E+02 CFU/mL and 3.15E+03 CFU/mL and 1.10E+03 CFU/mL | CFU/mL 2 ([3]; 5 min): 0 CFU/mL | Mean CFU/mL ([3]; 5 min): 5.00E+1 CFU/mL | CFU/mL ([3]; 5 min): 5.00E+01 CFU/mL | CFU/mL 2 ([3]; […]): 1.00E+02 CFU/mL | Mean CFU/mL ([3]; […]): 1.17E+2 CFU/mL
